Assay results reported in article PMC4812144, “Flavonolignans As a Novel Class of Sodium Pump Inhibitors” (Frontiers in Physiology, 2016).

What was measured:
Na+/K+-ATPase (NKA) [1] = molecular target: T1, Na+/K+-ATPase (NKA) (Sus scrofa, UniProt P05024); assay: Ouabain-sensitive ATPase activity of NKA (Baginsky assay); format: biochemical, porcine; conditions: for IC50: ouabain-sensitive ATPase activity, NKA from porcine kidney, 3 mM ATP, read-out: IC50 for inhibition of the NKA activity; for n, Hill coefficient: fit of NKA inhibition curve to logistic function
T1 construct: The NKA was prepared from porcine kidney outer medulla; from tissue; host or cells: porcine kidney outer medulla
Experimental: The NKA was prepared from porcine kidney outer medulla using the method of Jorgensen and Klodos with some modifications (Jørgensen, [1988]; Klodos et al., [2002]; Kubala et al., [2014]). An isolated enzyme was pipetted into small aliquots and stored at −20°C in ISE buffer (25 mM imidazole, 250 mM sucrose, 1 mM EDTA, pH 7.4) containing SDS detergent. The molar concentration of isolated NKA was estimated using the Bradford method with consideration of MW(α + β) = 165,000 Da. The protein purity >90% was estimated from SDS-PAGE (Figure 2).
The measurements of NKA activity were performed using the Baginsky assay (Kubala et al., [2014]). The assay was performed in microwell plates in 4 replicates for each point and automated in the pipetting station Freedom EVO (Tecan, Switzerland).
(§1) The reaction buffer was composed of 325 mM NaCl, 50 mM KCl, 7.5 mM MgCl2, and 75 mM imidazole, pH 7.2. In the experiments where the K^+-dependence was estimated, the KCl concentration is ranging from 0 to 100 mM. The NKA (0.1 mg/mL) isolated from porcine kidney was mixed with reaction buffer without ATP. All inhibitors were solubilized in methanol immediately before the measurement and then premixed with the reaction buffer to the required concentration. Subsequently, 10 μL of inhibitor solution was added into 20 μL of enzyme solution and incubated for 2 min. In the control sample, only 10 μL of reaction buffer without inhibitor was added including corresponding amount of methanol. The reaction was started by the addition of ATP solution (20 μL, 7.5 mM in the stock, the final concentration in the reaction was 3 mM). The reaction proceeded for 6 min at room temperature and then was stopped by addition of 75 μL of staining solution, which was composed of 160 mM ascorbic acid, 3.7% (v/v) acetic acid, 3% (w/v) SDS, and 0.5% ammonium molybdate. The staining reaction was stopped after another 8 min by adding 125 μL of solution composed of 0.9% (w/v) bismuth citrate, 0.9% (w/v) sodium citrate and 3.7% HCl.
The Baginsky method detects a product of ATP hydrolysis, inorganic phosphate, which interacts with ammonium molybdate. The reaction results in a color change, which can be monitored as a change of absorbance at 710 nm, and was measured using microplate reader Synergy Mx (BioTek, USA). The calibration line was determined using KH2PO4 solutions, in […] concentration range.
(§2) The specific NKA activity is standardly estimated using the treatment by ouabain, which serves as a specific inhibitor of NKA. The ATPase activity decreases to less than 10% in the presence of 10 mM ouabain. This residual activity in the presence of ouabain was subtracted from the total estimated ATPase activity in ouabain-untreated samples, and all data are presented as the ouabain-sensitive ATPase activity. The IC50 values were obtained from fitting the data to the logistic function.

[2] = molecular target: T2, large cytoplasmic segment C45 of NKA (C45 loop, residues L354-I777) (Mus musculus, UniProt Q8VDN2); assay: Fluorescence spectroscopy of interaction with isolated large cytoplasmic segment C45; format: binding; conditions: 5 μM species; for Fluorescence intensity increase in the presence of C45: 5 μM C45, pH 7.4, excitation 380 nm
T2 construct: (His)6-tag (N); made in house; host or cells: E. coli BL21
Experimental: The large cytoplasmic segment connecting the transmembrane helices 4 and 5 (C45 loop, residues L354-I777 of the mouse brain sequence) with a (His)6-tag at the N-terminus was expressed in E. coli BL21 (Promega, USA) and purified using a Co^2+-based affinity resin (Clontech, USA) as described previously (Grycova et al., [2009]). Immediately after elution, the protein was dialyzed into 20 mM Tris, 140 mM NaCl, pH 7.4 buffer and stored at −20°C.
Spectroscopic experiments were performed in 20 mM Tris, 140 mM NaCl, pH 7.4 buffer. SCH, DHSCH and DHSD as well as protein C45 were diluted to 5 μM concentration.
Fluorescence emission spectra were measured using Fluorolog-3 (Horiba Scientific, USA). The spectra were scanned with a step of 1 nm, both excitation- and emission bandpass 5 nm and integration time 1 s. For SCH, the excitation was 325 nm and emission was recorded in the 340–600 nm interval, for DHSCH and DHSD, the excitation wavelength was 380 nm and spectra were scanned in the 400–600 nm interval. Signal from pure buffer was subtracted as a background.

Na+/K+-ATPase (NKA) [3] = molecular target: T1, Na+/K+-ATPase (NKA); assay: K+/ouabain antagonism: ouabain inhibition of NKA activity with or without flavonolignan; format: biochemical, porcine; conditions: for K0.5(ouabain): in the presence of 40 μM flavonolignan; for IC50: K0.5(ouabain), no flavonolignan (row None)
Experimental: as §1, §2
(§3) We have tested influence of these three species on the ouabain inhibition and K^+-dependence of NKA activation. None of the species substantially influenced the IC50 for ouabain or the K^+/ouabain antagonism (Figure 5). The NKA activity is K^+-dependent and it increased with increasing concentration of potassium with K0.5(K^+) = 4.2 ± 0.6 mM.

[4] = Solubility (qualitative remarks); format: physicochemical; conditions: NKA activity assay
Na+/K+-ATPase (NKA) [5] = molecular target: T1, Na+/K+-ATPase (NKA); assay: K+-dependence of NKA activity (K+-dependent activation); format: biochemical, porcine
Experimental: as §1, §3

[6] = 40 mM KCl (value in parentheses)
[7] = in the presence of 40 μM flavonolignan

SMILES: O=c1c(O)c(-c2ccc(O)c(O)c2)oc2cc(O)cc(O)c12 [QUE, quercetin]
- IC50 (Na+/K+-ATPase (NKA) [1]): > 1000 µM

SMILES: COc1cc(C2C3C=C(c4oc5cc(O)cc(O)c5c(=O)c4O)C4C2COC4(O)C3=O)ccc1O (centres unmarked) [DHSD, dehydrosilydianin]
- Fluorescence intensity increase in the presence of C45 [2]: three-fold
- K0.5(ouabain) (Na+/K+-ATPase (NKA) [3]; 5 mM KCl): 3.3 ± 1.4 µM
- K0.5(ouabain) (Na+/K+-ATPase (NKA) [3]; [6]): 19 ± 7 µM
- n, Hill coefficient (Na+/K+-ATPase (NKA) [1]): 0.6 ± 0.1
- IC50 (Na+/K+-ATPase (NKA) [1]): 36 ± 14 µM
- Solubility limiting the examined concentration range [4]: lower solubility
- K0.5(K+) for K+-dependent activation of NKA (Na+/K+-ATPase (NKA) [5]; [7]): 3 ± 2 mM

SMILES: COc1cc([C@@H]2[C@H]3CO[C@@]4(O)C(=O)[C@@H]2C=C([C@H]2Oc5cc(O)cc(O)c5C(=O)[C@@H]2O)[C@@H]34)ccc1O [SD, silydianin]
- IC50 (Na+/K+-ATPase (NKA) [1]): > 1000 µM
- Solubility limiting the examined concentration range [4]: lower solubility

SMILES: COc1cc(C2Oc3cc([C@H]4Oc5cc(O)cc(O)c5C(=O)[C@@H]4O)ccc3OC2CO)ccc1O (some centres unmarked) [SB, silybin]
- IC50 (Na+/K+-ATPase (NKA) [1]): > 1000 µM
- Solubility limiting the examined concentration range [4]: lower solubility

SMILES: O=C1c2c(O)cc(O)cc2OC(c2ccc(O)c(O)c2)C1O (centres unmarked) [TAX, taxifolin]
- IC50 (Na+/K+-ATPase (NKA) [1]): > 1000 µM

SMILES: COc1cc(C2Oc3c(O)cc(-c4oc5cc(O)cc(O)c5c(=O)c4O)cc3C2CO)ccc1O (centres unmarked) [DHSCH, dehydrosilychristin]
- Fluorescence intensity increase in the presence of C45 [2]: ca. 3 times
- K0.5(ouabain) (Na+/K+-ATPase (NKA) [3]; 5 mM KCl): 1.5 ± 0.5 µM
- K0.5(ouabain) (Na+/K+-ATPase (NKA) [3]; [6]): 24 ± 6 µM
- n, Hill coefficient (Na+/K+-ATPase (NKA) [1]): 0.8 ± 0.1
- IC50 (Na+/K+-ATPase (NKA) [1]): 38 ± 8 µM
- K0.5(K+) for K+-dependent activation of NKA (Na+/K+-ATPase (NKA) [5]; [7]): 4 ± 1 mM

SMILES: C[C@@H]1O[C@@H](O[C@H]2C[C@@H](O)[C@]3(CO)[C@H]4[C@H](O)C[C@]5(C)[C@@H](C6=CC(=O)OC6)CC[C@]5(O)[C@@H]4CC[C@]3(O)C2)[C@H](O)[C@H](O)[C@H]1O [ouabain, reference compound]
- IC50 (Na+/K+-ATPase (NKA) [3]; 5 mM KCl): 2.6 ± 1.3 µM
- IC50 (Na+/K+-ATPase (NKA) [3]; [6]): 23 µM
- remaining activity at 10000 µM (Na+/K+-ATPase (NKA) [1]; read-out: ATPase activity remaining in the presence of ouabain): < 10%
- K0.5(K+) for K+-dependent activation of NKA (Na+/K+-ATPase (NKA) [5]; in the presence of ouabain): 14.8 ± 0.1 mM

SMILES: COc1cc(C2Oc3cc(-c4oc5cc(O)cc(O)c5c(=O)c4O)ccc3OC2CO)ccc1O (centres unmarked) [DHSB]
- n, Hill coefficient (Na+/K+-ATPase (NKA) [1]): 0.5 ± 0.1
- IC50 (Na+/K+-ATPase (NKA) [1]): 900 ± 800 µM
- Solubility limiting the examined concentration range [4]: lower solubility

SMILES: COc1cc(C2Oc3c(O)cc([C@H]4Oc5cc(O)cc(O)c5C(=O)[C@@H]4O)cc3C2CO)ccc1O (some centres unmarked) [SCH, silychristin]
- Fluorescence quantum yield increase in the presence of C45 compared to the free species ([2]; 5 μM C45, pH 7.4): more than 1000 times
- K0.5(ouabain) (Na+/K+-ATPase (NKA) [3]; 5 mM KCl): 4.0 ± 1.7 µM
- K0.5(ouabain) (Na+/K+-ATPase (NKA) [3]; [6]): 18 ± 2 µM
- n, Hill coefficient (Na+/K+-ATPase (NKA) [1]): 0.6 ± 0.1
- IC50 (Na+/K+-ATPase (NKA) [1]): 110 ± 40 µM
- K0.5(K+) for K+-dependent activation of NKA (Na+/K+-ATPase (NKA) [5]; [7]): 8 ± 5 mM
